{
  "source": "patent US20050170393A1",
  "about": "“OATPB transporters expressed in blood brain barrier cells” (Xenoport, Inc., priority 2004, published 2005)",
  "key": {"PgP": {"target": "T1, PgP (Homo sapiens, UniProt P08183)", "T1 construct": "expressed in transfected cells; host or cells: MDCK cells", "T1 sequence (P08183 whole entry)": "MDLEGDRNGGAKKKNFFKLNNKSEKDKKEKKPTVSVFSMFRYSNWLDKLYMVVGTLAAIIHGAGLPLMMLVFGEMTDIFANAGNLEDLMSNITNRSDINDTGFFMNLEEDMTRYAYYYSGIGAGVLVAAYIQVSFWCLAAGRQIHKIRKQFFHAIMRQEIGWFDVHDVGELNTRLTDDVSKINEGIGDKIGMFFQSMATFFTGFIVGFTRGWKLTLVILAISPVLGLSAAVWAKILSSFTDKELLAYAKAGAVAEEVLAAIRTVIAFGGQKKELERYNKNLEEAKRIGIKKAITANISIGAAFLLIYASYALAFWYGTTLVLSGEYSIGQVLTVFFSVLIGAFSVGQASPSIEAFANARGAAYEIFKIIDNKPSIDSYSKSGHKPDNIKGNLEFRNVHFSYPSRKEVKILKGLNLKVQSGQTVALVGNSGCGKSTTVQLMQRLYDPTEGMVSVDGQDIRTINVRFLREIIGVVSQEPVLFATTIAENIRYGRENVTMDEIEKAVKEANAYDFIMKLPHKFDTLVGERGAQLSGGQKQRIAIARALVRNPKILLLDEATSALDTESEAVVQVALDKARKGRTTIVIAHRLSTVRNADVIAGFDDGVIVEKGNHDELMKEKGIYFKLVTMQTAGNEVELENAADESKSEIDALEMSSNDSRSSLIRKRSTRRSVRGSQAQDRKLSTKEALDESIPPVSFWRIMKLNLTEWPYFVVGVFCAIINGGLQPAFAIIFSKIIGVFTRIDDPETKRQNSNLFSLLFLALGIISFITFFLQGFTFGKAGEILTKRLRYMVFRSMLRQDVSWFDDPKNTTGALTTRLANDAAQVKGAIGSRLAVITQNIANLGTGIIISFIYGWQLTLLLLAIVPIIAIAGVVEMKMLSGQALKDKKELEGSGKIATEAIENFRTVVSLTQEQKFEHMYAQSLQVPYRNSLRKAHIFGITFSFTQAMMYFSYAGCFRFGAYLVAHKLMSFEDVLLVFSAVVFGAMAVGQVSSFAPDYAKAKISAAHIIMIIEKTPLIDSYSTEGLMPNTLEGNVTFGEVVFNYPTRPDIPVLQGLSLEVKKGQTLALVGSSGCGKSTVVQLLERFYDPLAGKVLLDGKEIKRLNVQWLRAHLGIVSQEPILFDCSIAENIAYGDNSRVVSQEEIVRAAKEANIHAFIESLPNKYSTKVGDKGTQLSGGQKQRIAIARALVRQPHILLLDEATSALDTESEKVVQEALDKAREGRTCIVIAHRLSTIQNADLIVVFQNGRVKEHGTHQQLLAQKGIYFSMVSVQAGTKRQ", "test": "Cellular transwell monolayer efflux assay in MDCK cells transfected with TREx-PgP", "format": "cell-based", "procedure": "A third type of efflux transporter assay is the cellular transwell monolayer efflux assay. […] The cells form a polarized monolayer. The transwell dishes have apical and basolateral chambers that are separated by the filter membrane on which the polarized monolayer is situated. Assays are performed by placing a test compound in either the apical or basolateral chamber, followed by sampling the opposite chamber after a predetermined period of time such as 60-120 minutes and measuring the amount of the test compound. The test compound can be measured by methods such as radiolabel detection or LC-MS-MS analysis. Assays are performed in the presence and absence of an efflux transporter inhibitor or competitor. Efflux transporter inhibitors or competitors increase apical to basolateral transport and decrease basolateral to apical transport of compounds that are efflux transporter substrates. Apparent permeability (Papp) of test compounds is measured. […] Test compounds that generate ratios between 1.5 and 2.0 require additional testing to determine if they are efflux transporter substrates.\nMDCK cells transfected with the tetracycline-inducible TREx-PgP expression vector were seeded on polycarbonate filter membranes in transwell dishes and grown for 3-5 days, yielding a polarized monolayer with tight junctions between cells. […] The left set of bars depicts apical to basolateral transport, while the right set of bars depicts basolateral to apical transport."}, "OATPB [1]": {"target": "T2, OATPB (Homo sapiens, UniProt O94956)", "T2 sequence (O94956 1-709)": "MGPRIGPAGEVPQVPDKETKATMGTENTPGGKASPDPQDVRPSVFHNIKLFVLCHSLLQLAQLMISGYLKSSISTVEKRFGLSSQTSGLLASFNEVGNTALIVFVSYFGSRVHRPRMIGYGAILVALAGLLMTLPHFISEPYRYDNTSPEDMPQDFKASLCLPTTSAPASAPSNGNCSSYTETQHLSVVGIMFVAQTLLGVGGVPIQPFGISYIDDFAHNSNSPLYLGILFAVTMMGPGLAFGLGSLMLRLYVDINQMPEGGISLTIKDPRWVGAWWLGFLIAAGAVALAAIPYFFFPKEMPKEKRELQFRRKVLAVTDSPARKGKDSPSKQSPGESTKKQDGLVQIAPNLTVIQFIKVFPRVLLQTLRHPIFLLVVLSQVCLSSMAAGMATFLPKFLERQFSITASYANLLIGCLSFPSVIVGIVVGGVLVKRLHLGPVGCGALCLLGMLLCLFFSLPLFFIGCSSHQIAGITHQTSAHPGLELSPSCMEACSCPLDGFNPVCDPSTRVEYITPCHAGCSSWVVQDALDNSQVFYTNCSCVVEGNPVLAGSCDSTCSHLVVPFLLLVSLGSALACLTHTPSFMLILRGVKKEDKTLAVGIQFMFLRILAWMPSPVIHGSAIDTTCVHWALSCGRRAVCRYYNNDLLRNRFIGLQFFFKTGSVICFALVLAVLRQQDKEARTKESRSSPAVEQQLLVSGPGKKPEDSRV", "details": "cited from earlier work"}, "OATPB transporter": {"target": "T3, OATPB transporter (Homo sapiens, UniProt O94956)", "T3 construct": "expressed in transfected cells", "T3 sequence (O94956 1-709)": "T2 sequence (O94956 1-709)", "test": "Direct uptake assay in tet-induced and non-induced OATPB-HEK/TREx cells (LC-MS-MS)", "format": "cell-based", "details": "125, 250, 500 or 1000 μM, 20 minutes at room temperature, with and without tetracycline (FIG. 7)", "excerpt": "To increase the throughput of OATPB compound screening, a mammalian cell assay was developed using an inducible expression system. OATPB was subcloned into a plasmid that allows for inducible expression by tetracycline (TREx plasmid, Invitrogen Inc. Carlsbad Calif.). The OATPB-HEK plasmid was […] transfected into a HEK cell line engineered for tetracycline-inducible expression (HEK-TREx, Invitrogen) and stable clones were isolated by G418 selection and […] (FACS).\nIn order to measure whether test compounds are actively translocated across the membrane, and to determine the maximal transport rate, a direct uptake method can be used in which transport of a test compound is measured by mass spectroscopy. For direct uptake measurements using mass spectroscopy, OATPB-HEK/TREx cells can be prepared similarly to those used for competition studies (described above). […] The supernatant is analyzed by LC-MS-MS. As a negative control, uptake is measured in cells not treated with tetracycline, or by competition with another substrate such as estrone-3-sulfate or bromosulphophthalein (3 mM).\nThe uptake of PGFα by OATPB-HEK/TREx cells was measured as described in Example 3. […] The supernatant was analyzed by LC-MS-MS. As a negative control, uptake was measured in cells not treated with tetracycline."}, "OATPB [2]": {"target": "T2, OATPB", "test": "^3H-estrone sulfate uptake into oocytes injected with OATPB cRNA", "format": "cell-based", "set-up": "expressed in transfected cells; host or cells: Xenopus oocytes injected with OATPB cRNA", "details": "oocytes expressing OATPB versus noninjected controls (FIG. 2)"}, "[3]": {"details": "2.5 nM ^3H-vinblastine, in the presence of 250 μM verapamil versus absence (FIG. 6)"}},
  "data": [
    {"smiles": "CC[C@]1(O)C[C@@H]2CN(CCc3c([nH]c4ccccc34)[C@@](C(=O)OC)(c3cc4c(cc3OC)N(C)[C@H]3[C@@](O)(C(=O)OC)[C@H](OC(C)=O)[C@]5(CC)C=CCN6CC[C@]43[C@@H]65)C2)C1", "note": "[^3H-vinblastine]", "values": [
      {"measurement": "Apical to basolateral transport", "setting": "PgP; [3]", "value": "strongly increased"},
      {"measurement": "Basolateral to apical transport", "setting": "PgP; [3]", "value": "strongly decreased"},
      {"measurement": "PgP substrate status", "setting": "PgP; conclusion from the transwell assay with and without verapamil", "value": "is a substrate of PgP"}
    ]},
    {"smiles": "O=C1OC(c2ccc(O)c(S(=O)(=O)O)c2)(c2ccc(O)c(S(=O)(=O)O)c2)c2c(Br)c(Br)c(Br)c(Br)c21", "note": "[Bromosulfophthalein]", "values": [
      {"measurement": "Reported Affinity for OATPB", "setting": "OATPB [1]", "value": 0.04, "unit": "mM"}
    ]},
    {"smiles": "CCCCC[C@H](O)/C=C/[C@@H]1[C@@H](C/C=C\\CCCC(=O)O)[C@@H](O)C[C@H]1O", "note": "[PGFα]", "values": [
      {"measurement": "OATPB substrate status", "setting": "OATPB transporter", "value": "is a substrate for the OATPB transporter"}
    ]},
    {"smiles": "C[C@]12CC[C@@H]3c4ccc(OS(=O)(=O)O)cc4CC[C@H]3[C@@H]1CCC2=O", "note": "[Estrone-3-sulfate]", "values": [
      {"measurement": "Reported Affinity for OATPB", "setting": "OATPB [1]", "value": 0.1, "unit": "mM"},
      {"measurement": "^3H-estrone-3-sulfate uptake", "setting": "OATPB [2]", "value": "higher levels of ^3H-estrone-3-sulfate uptake than noninjected controls"}
    ]}
  ]
}
